Assay results from patent US11192852B2, “Pyrazolyl and pyrimidinyl tricyclic enones as antioxidant inflammation modulators” (REATA PHARMACEUTICALS, INC., priority 2010, dated 2021).

System: IFNγ-induced NO production in RAW264.7 mouse macrophages
Test: Suppression of IFNγ-induced nitric oxide production (Griess reagent)
Format: cell-based
Settings: 2 h pre-treatment (0-200 nM), then IFNγ 24 h, normalized to cell viability
Excerpt: Nitric Oxide Production and Cell Viability.

[1] = Mus musculus, RAW264.7, RAW264.7 cells

## CC1(C)C(=O)C(C#N)=C[C@]2(C)[C@@H](O)CCC[C@@H]12 [TX63363]
[1]
  IC50: > 200 nM

## Cn1nc2c(c1-c1ccccc1)CC[C@H]1C(Cc3ccccc3)(Cc3ccccc3)C(=O)C(C#N)=C[C@]21C [TX63601]
[1]
  IC50: 150 nM

## Cn1nnc(-c2c3c(nn2C)[C@@]2(C)C=C(C#N)C(=O)C(C)(C)[C@@H]2CC3)n1 [TX63665]
[1]
  IC50: 14 nM

## CCOC(=O)c1nc(OC)c2c(n1)[C@@]1(C)C=C(C#N)C(=O)[C@@H](C)[C@@H]1CC2 [TX63730]
[1]
  IC50: 16 nM

## Cn1nc2c(c1-c1cccc3ccccc13)CC[C@H]1C(C)(C)C(=O)C(C#N)=C[C@]21C [TX63603]
[1]
  IC50: 61 nM

## CC1(C)C(=O)C(C#N)=C[C@]2(C)c3nc(-c4ccc(Cl)cc4)ncc3CC[C@@H]12 [TX63582]
[1]
  IC50: 33 nM

## Cc1cccc(-c2ncc3c(n2)[C@@]2(C)C=C(C#N)C(=O)C(C)(C)[C@@H]2CC3)c1 [TX63583]
[1]
  IC50: 33 nM

## CC1(C)C(=O)C(C#N)=C[C@]2(C)C(=O)c3cnn(-c4ccccc4)c3C[C@@H]12 [TX63456]
[1]
  IC50: > 200 nM

## CC1(C)C(=O)C(C#N)=C[C@]2(C)c3nc(-c4ccccn4)ncc3CC[C@@H]12 [TX63641]
[1]
  IC50: 43 nM

## Cc1noc(C)c1-c1c2c(nn1C)[C@@]1(C)C=C(C#N)C(=O)C(C)(C)[C@@H]1CC2 [TX63625]
[1]
  IC50: 77 nM

## C[C@@H]1C(=O)C(C#N)=C[C@]2(C)c3nc(-c4ccccc4)n(C)c(=O)c3CC[C@@H]12 [TX63666]
[1]
  IC50: 25 nM

## Cn1cc2c(n1)[C@@]1(C)C=C(C#N)C(=O)C(C)(C)[C@@H]1CC2 [TX63432]
RAW264.7 cells
  IC50: 166 nM

## C[C@@H]1C(=O)C(C#N)=C[C@]2(C)c3nn(C)c(-c4ccccn4)c3CC[C@@H]12 [TX63851]
[1]
  IC50: 5.1 nM

## C#Cc1c2c(nn1C)[C@@]1(C)C=C(C#N)C(=O)C(C)(C)[C@@H]1CC2 [TX63651]
[1]
  IC50: 23 nM

## Cc1cccc(-c2c3c(nn2C)[C@@]2(C)C=C(C#N)C(=O)[C@@H](C)[C@@H]2CC3)c1 [TX63650]
[1]
  IC50: 6.1 nM

## Cn1nc2c(c1-c1ccccc1)CC[C@H]1CC(=O)C=C[C@]21C [TX63570]
[1]
  IC50: > 200 nM

## CC(C)n1cnc(-c2c3c(nn2C)[C@@]2(C)C=C(C#N)C(=O)C(C)(C)[C@@H]2CC3)n1 [TX63905]
[1]
  IC50: 129 nM

## Cn1nc2c(c1-c1ccccc1)CCC1=CC(=O)C=C[C@@]12C [TX63578]
[1]
  IC50: > 200 nM

## CCOC(=O)n1nc2c(c1-c1ccccc1)CC[C@H]1[C@H](C)C(=O)C(C#N)=C[C@]21C [TX63871]
[1]
  IC50: 7.5 nM

## C[C@@H]1C(=O)C(C#N)=C[C@]2(C)c3nn(C)c(Br)c3CC[C@@H]12 [TX63606]
[1]
  IC50: 11 nM

## Cc1noc(-c2c3c(nn2C)[C@@]2(C)C=C(C#N)C(=O)C(C)(C)[C@@H]2CC3)n1 [TX63760]
[1]
  IC50: 6.2 nM

## CC(=O)n1nc2c(c1-c1ccccc1)CC[C@H]1[C@H](C)C(=O)C(C#N)=C[C@]21C [TX63850]
[1]
  IC50: 8.9 nM

## Cn1nc2c(c1-c1ccccc1Cl)CC[C@H]1C(C)(C)C(=O)C(C#N)=C[C@]21C [TX63491]
[1]
  IC50: 35 nM

## C[C@@H]1C(=O)C(C#N)=C[C@]2(C)c3nn(C)c(-c4nnn(C)n4)c3CC[C@@H]12 [TX63719]
[1]
  IC50: 5.9 nM

## Cn1nc2c(c1-c1ccc(Oc3ccccc3)cc1)CC[C@H]1C(C)(C)C(=O)C(C#N)=C[C@]21C [TX63587]
[1]
  IC50: 40 nM

## CC(C)n1nnc(-c2c3c(nn2C)[C@@]2(C)C=C(C#N)C(=O)C(C)(C)[C@@H]2CC3)n1 [TX63734]
[1]
  IC50: 43 nM

## CN1N=C2C(C)(CC[C@H]3C(C)(C)C(=O)C(C#N)=C[C@]23C)C1=O (some centres unmarked) [TX63692]
[1]
  IC50: > 200 nM

## COc1nc(C)nc2c1CC[C@H]1[C@H](C)C(=O)C(C#N)=C[C@]21C [TX63646]
[1]
  IC50: 8.5 nM

## CC1(C)C(=O)C(C#N)=C[C@]2(C)c3nc(-c4ccccc4Cl)ncc3CC[C@@H]12 [TX63612]
[1]
  IC50: 43 nM

## C[C@@H]1C(=O)C(C#N)=C[C@]2(C)c3nn(C)c(C(=O)N(C)C)c3CC[C@@H]12 [TX63655]
[1]
  IC50: > 200 nM

## Cn1cc2c(n1)[C@@]1(C)C=C(C#N)C(=O)C(C)(C)[C@H]1C2 [TX63436]
[1]
  IC50: > 200 nM

## Cn1nc2c(c1C1CCCCC1)CC[C@H]1C(C)(C)C(=O)C(C#N)=C[C@]21C [TX63591]
[1]
  IC50: 74 nM

## CCOC(=O)c1c2c(nn1C)[C@@]1(C)C=C(C#N)C(=O)C(C)(C)[C@@H]1CC2 [TX63630]
[1]
  IC50: 38 nM

## COc1ccc(-c2c3c(nn2C)[C@@]2(C)C=C(C#N)C(=O)C(C)(C)[C@@H]2CC3)cc1 [TX63515]
[1]
  IC50: 35 nM

## COc1nc(C(C)(C)C)nc2c1CC[C@H]1[C@H](C)C(=O)C(C#N)=C[C@]21C [TX63853]
[1]
  IC50: 31 nM

## Cn1nc2c(c1-c1ccccc1)C(=O)C[C@H]1C(C)(C)C(=O)C=C[C@]21C [TX63804]
[1]
  IC50: > 200 nM

## C[C@@H]1C(=O)C(C#N)=C[C@]2(C)c3nn(C)c(-c4cccc(F)c4)c3CC[C@@H]12 [TX63659]
[1]
  IC50: 8.1 nM

## C[C@@H]1C(=O)C(C#N)=C[C@]2(C)c3nn(C)c(C#N)c3CC[C@@H]12 [TX63725]
[1]
  IC50: 24 nM

## C[C@@H]1C(=O)C(C#N)=C[C@]2(C)c3nn(C)c(N4C(=O)NC(C)(C)C4=O)c3CC[C@@H]12 [TX63776]
[1]
  IC50: > 200 nM

## CC1=C2CCc3c(nn(C)c3-c3cccc(F)c3)[C@@]2(C)C=C(C#N)C1=O [TX63663]
[1]
  IC50: 108 nM

## C[C@@H]1C(=O)C(C#N)=C[C@]2(C)c3nn(C)c(-c4ccccc4F)c3CC[C@@H]12 [TX63721]
[1]
  IC50: 7.8 nM

## CC1(C)C(=O)C(C#N)=C[C@]2(C)c3nc(-c4ccncc4)ncc3CC[C@@H]12 [TX63636]
[1]
  IC50: 27 nM

## CCOc1nc(-c2ccccc2)nc2c1CC[C@H]1[C@H](C)C(=O)C(C#N)=C[C@]21C [TX63731]
[1]
  IC50: 32 nM

## COC(=O)n1cc2c(n1)[C@@]1(C)C=C(C#N)C(=O)C(C)(C)[C@@H]1CC2 [TX63462]
[1]
  IC50: 147 nM

## COc1nc(-c2ccncc2)nc2c1CC[C@H]1[C@H](C)C(=O)C(C#N)=C[C@]21C [TX63728]
[1]
  IC50: 6.7 nM

## Cn1nc2c(c1-c1ccc3ccccc3c1)CC[C@H]1C(C)(C)C(=O)C(C#N)=C[C@]21C [TX63600]
[1]
  IC50: 59 nM

## C[C@@H]1C(=O)[C@]2(C#N)O[C@@H]2[C@]2(C)c3nn(C)c(-c4ccccc4)c3CC[C@@H]12 [TX63848]
[1]
  IC50: 9.5 nM

## Cc1ccccc1-c1c2c(nn1C)[C@@]1(C)C=C(C#N)C(=O)C(C)(C)[C@@H]1CC2 [TX63508]
[1]
  IC50: 33 nM

## CC1(C)C(=O)C(C#N)=C[C@]2(C)c3[nH]c(=O)ncc3CC[C@@H]12 [TX63553]
[1]
  IC50: > 200 nM

## Cn1nc2c(c1-c1ccccc1)CC[C@H]1[C@H](c3ccccc3)C(=O)C(C#N)=C[C@]21C [TX63629]
[1]
  IC50: 137 nM

## COc1ncc2c(n1)[C@@]1(C)C=C(C#N)C(=O)C(C)(C)[C@@H]1CC2 [TX63528]
[1]
  IC50: 85 nM

## CC1(C)C(=O)C(C#N)=C[C@]2(C)c3nn(C4CCCCC4)cc3CC[C@@H]12 [TX63444]
[1]
  IC50: 140 nM

## CC1=C2CCc3c(nn(C)c3-c3cccc(C)c3)[C@@]2(C)C=C(C#N)C1=O [TX63656]
[1]
  IC50: > 200 nM

## COc1ccccc1-c1nc(OC)c2c(n1)[C@@]1(C)C=C(C#N)C(=O)[C@@H](C)[C@@H]1CC2 [TX63727]
[1]
  IC50: 11.5 nM

## Cn1nc2c(c1-c1ccccc1)CC[C@H]1C(C)(C)C(=O)[C@]3(C#N)O[C@@H]3[C@]21C [TX63834]
[1]
  IC50: 105 nM

## CC(=O)n1nc2c(c1-c1ccccc1)CC[C@H]1C(C)(C)C(=O)C(C#N)=C[C@]21C [TX63611]
[1]
  IC50: 22 nM

## CC1(C)C(=O)C(C#N)=C[C@]2(C)c3nn(-c4ccccc4)cc3CC[C@@H]12 [TX63455]
[1]
  IC50: 109 nM

## CC1(C)C(=O)C(C#N)=C[C@]2(C)c3c(cnc4ccnn34)CC[C@@H]12 [TX63627]
[1]
  IC50: 38 nM

## CC1(C)C(=O)C(C#N)=C[C@]2(C)c3nc4c(Br)cnn4cc3CC[C@@H]12 [TX63617]
[1]
  IC50: 33 nM

## CC1(C)C(=O)C(C#N)=C[C@]2(C)c3nn(C(=O)c4ccccc4)cc3CC[C@@H]12 [TX63642]
[1]
  IC50: 147 nM

## C[C@@H]1C(=O)C(C#N)=C[C@]2(C)c3nn(C)cc3CC[C@@H]12 [TX63551]
[1]
  IC50: 49 nM

## Cn1nc2c(c1Br)CC[C@H]1C(C)(C)C(=O)C(C#N)=C[C@]21C [TX63445]
[1]
  IC50: 37.9 nM

## CC1(C)C(=O)C(C#N)=C[C@]2(C)c3c(cnc4c(-c5ccccc5)cnn34)CC[C@@H]12 [TX63626]
[1]
  IC50: 38 nM

## Cn1nc2c(c1-c1cccc(Cl)c1)CC[C@H]1C(C)(C)C(=O)C(C#N)=C[C@]21C [TX63485]
[1]
  IC50: 34 nM

## CC1(C)C(=O)C(C#N)=C[C@]2(C)c3nn(CC(F)(F)F)cc3CC[C@@H]12 [TX63454]
[1]
  IC50: 134 nM

## CC1(C)C(=O)C(C#N)=C[C@]2(C)c3nn(C(C)(C)C)cc3CC[C@@H]12 [TX63450]
[1]
  IC50: 148 nM

## C[C@@H]1C(=O)C(C#N)=C[C@]2(C)c3c(c(Br)nn3C)CC[C@@H]12 [TX63649]
[1]
  IC50: 21 nM

## CC1(C)C(=O)C(C#N)=C[C@]2(C)C(=O)c3cnn(C(C)(C)C)c3C[C@@H]12 [TX63451]
[1]
  IC50: 137 nM

## COc1nc(-c2cncnc2)nc2c1CC[C@H]1[C@H](C)C(=O)C(C#N)=C[C@]21C [TX63757]
[1]
  IC50: 4.3 nM

## Cn1nc2c(c1-c1nnn(Cc3ccccc3)n1)CC[C@H]1C(C)(C)C(=O)C(C#N)=C[C@]21C [TX63729]
[1]
  IC50: 29 nM

## C[C@@H]1C(=O)C(C#N)=C[C@]2(C)c3nn(C)c(-c4ccccc4)c3CC[C@@H]12 [TX63791]
[1]
  IC50: 2.3 nM

## C[C@@H]1C(=O)C(C(F)(F)F)=C[C@]2(C)c3nn(C)c(-c4ccccc4)c3CC[C@@H]12 [TX63829]
[1]
  IC50: 22 nM

## COc1nc(OC)c2c(n1)[C@@]1(C)C=C(C#N)C(=O)[C@@H](C)[C@@H]1CC2 [TX63718]
RAW264.7 cells
  IC50: 6 nM

## Cc1noc(-c2c3c(nn2C)[C@@]2(C)C=C(C#N)C(=O)[C@@H](C)[C@@H]2CC3)n1 [TX63872]
[1]
  IC50: 4.6 nM

## CC1(C)C(=O)C(C#N)=C[C@]2(C)c3c(cnn3-c3ccccc3)CC[C@@H]12 [TX63524]
[1]
  IC50: 68 nM

## COc1ncnc2c1CC[C@H]1[C@H](C)C(=O)C(C#N)=C[C@]21C [TX63874]
[1]
  IC50: 5.5 nM

## Cn1[nH]c2c(c1=O)CC[C@H]1C(C)(C)C(=O)C(C#N)=C[C@]21C [TX63676]
[1]
  IC50: > 200 nM
